Assay results as given in patent publication US20210052703A1 (SHANGHAI BENEMAE PHARMACEUTICAL CORPORATION, priority 2018, published 2021).

Tested on: patients with type 2 diabetes
Experiment: trial 5C: Beinaglutide with metformin, multicenter, type 2 diabetes
Assay type: in vivo, human
Settings: control group (metformin alone group); 12 weeks of treatment
Source text: Note: Covariance analysis was used for comparison between groups. The dependent variable was the change in body weight relative to baseline, and the covariate was baseline. Body weight change from baseline=post-treatment−baseline. Data from 5C test data.

For `CN(C)C(=N)N=C(N)N` [metformin, reference compound], the “proportion of subjects with weight loss from the baseline ≥3%” value was 27.27% and the “proportion of subjects with weight loss ≥5%” value was 10.39%.
